Results on 7 molecules are retold here after patent US8173131B2, “Compositions and methods for modulating RSV infection and immunity” (PerkinElmer Health Sciences, Inc., priority 2000, dated 2012).

One test deals with RSV. The experiment in a line: RSV plaque reduction assay on Vero cells (Example 1). Format: cell-based, RSV/A2. The protocol:
Dilutions of Fkn (R&D systems), SDF-1 α (R&D systems), G glycoprotein, heparin (Sigma), G glycoprotein peptides and anti-CX3CR1 antibody were made in serum-free Dulbecco's Modified Eagle's Media (DMEM; GIBCO) containing 1% BSA (Sigma) and preincubated with the Vero cells for 1 h at 37° C. 50 μg of anti-CX3CR1 antibody or heat-inactivated (56° C., 30 min) normal rabbit sera (control) were used in all experiments. […] Dilutions of RSV were made in serum-free DMEM (GIBCO) and added to pretreated Vero cells for 2 h at 37° C. Following virus infection, DMEM (GIBCO) containing 10% FBS (Hyclone, Logan, Utah) was added to the wells. Plaques were enumerated using immunostaining for F and G glycoproteins using biotinylated monoclonal antibodies 131-2A (anti-F glycoprotein) and 130-2G (anti-G glycoprotein) as described^45.
RSV plaque reduction following treatment with G glycoprotein, Fkn, G glycoprotein peptides, anti-CX3CR1 antibody, SDF-1-α and/or heparin as described in Methods. Percent inhibition was determined from the mean plaque forming units (pfu) of treated Vero cells over saline-treated Vero cells using a dilution of RSV that would produce 40-80 pfu. p-values were determined using unpaired two-tailed analysis where p<0.05 is significant. The concentration of G glycoprotein was estimated using a molecular weight of 90 kD.
(Plaques are areas of infected cells; plaque reduction assays count them against a control.)

Test [1] has as its system G glycoprotein binding to 293-CX3CR1 cells. Also on record: species or system human. To be noted: for percent staining of G glycoprotein on CX3CR1-293 cells in the presence of peptide: 10 nM G glycoprotein, 84% without peptide, FIG. 1. The protocol:
All binding studies were done on ice and either G glycoprotein or human Fkn (R&D Diagnostics, Minneapolis, Minn.) were diluted between 1 nM-100 nM in PBS (GIBCO) containing 1% bovine serum albumin (Sigma) and incubated with the 293-CX3CR1 cells or 293 control cells for 30 min at 4° C. […] Without washing, 100 pM of either Fkn or G glycoprotein was added and incubated for 30 min at 4° C. The cells were washed, blocked with FcγRIII blocking antibody (HB197) for 30 min on ice, washed and stained as appropriate with either an anti-G glycoprotein monoclonal antibody cocktail (132-5B, 132-5G, 130-2G, 232-IF) or a biotinylated anti-G glycoprotein monoclonal antibody cocktail (130-2G, 131-2G) or anti-Fkn monoclonal antibody (51637.11; R&D Diagnostics). Concentrations of 1 μg of anti-G glycoprotein monoclonal antibody (131-2G)^34, rabbit anti-CX3CR1 sera^33, and anti-CX3CR1 monoclonal antibody containing 10 μg/ml heparin were used in all experiments. […] Staining was detected with absorbed FITC-goat anti-mouse (H & L chain) monoclonal antibody (PharMingen, San Diego, Calif.) or streptavidin-PE (PharMingen) using flow cytometry (FACScan, Becton-Dickinson, Mountain View, Calif.). A 76 amino acid ^125I-Fkn polypeptide comprising the […] (NEN, Boston, Mass.) was used in radioligand studies^33. As a control, the void volume following purified G glycoprotein passaged over an anti-G glycoprotein antibody (130-2G) affinity column was examined by flow cytometry for binding to either 293 or 293-CX3CR1 cells.
(§1) For peptide inhibition studies, a series of G glycoprotein peptides were identified in the amino acid sequence of the A2 strain of RSV (GENBANK, attachment protein locus 1912305, Table 4). The peptides were synthesized using a simultaneous, multiple solid-phase peptide synthesis method on a peptide synthesizer (Perkin-Elmer Applied Biosystems, Berkeley, Calif.), and tested for homogeneity by reverse-phase liquid chromatography and capillary electrophoresis (www.biotech.cdc.gov/protein/methods). Inhibition assays were performed as described for the binding studies above.
(§2) To determine if G glycoprotein bound 293-CX3CR1 cells via CX3CR1, the ability of four reagents (anti-CX3CR1 rabbit antiserum, anti-CX3CR1 monoclonal antibody (2A9-1), Fkn and a 76 amino acid 125-I-Fkn polypeptide containing the CX3C domain) that bind to CX3CR1 to block G glycoprotein binding to 293-CX3CR1 cells was examined. In addition, to determine if binding of G glycoprotein to 293-CX3CR1 cells was dependent upon the CX3C motif, G glycoprotein peptides with a single residue insertion (Δ+1) or deletion (Δ−1) in the CX3C motif and also peptides that lacked or included the CX3C motif (Table 4) were generated. This panel of peptides was analyzed for their ability to block G glycoprotein or Fkn binding to 293-CX3CR1 cells.
(§3) Inhibition of Fkn and G glycoprotein binding to 293-CX3CR1 cells by treatment with monoclonal antibodies to G glycoprotein or CX3CR1, or treatment with G glycoprotein, Fkn, or G glycoprotein peptides in the presence or absence of heparin as described in Methods. […] The concentration of G glycoprotein was estimated using a molecular weight of 90 kD.

Test [2] addresses T1, Fkn binding to 293-CX3CR1 cells (Homo sapiens, UniProt P49238).
T1 construct: host or cells: HEK 293 cells stably transfected with CX3CR1
To be noted: no heparin. The protocol:
All binding studies were done on ice and either G glycoprotein or human Fkn (R&D Diagnostics, Minneapolis, Minn.) were diluted between 1 nM-100 nM in PBS (GIBCO) containing 1% bovine serum albumin (Sigma) and incubated with the 293-CX3CR1 cells or 293 control cells for 30 min at 4° C. […] For inhibition studies, 100 pM-1 μM human Fkn or G glycoprotein was preincubated with the cells for 30 min at 4° C. Without washing, 100 pM of either Fkn or G glycoprotein was added and incubated for 30 min at 4° C. The cells were washed, blocked with FcγRIII blocking antibody (HB197) for 30 min on ice, washed and stained as appropriate with either an anti-G glycoprotein monoclonal antibody cocktail (132-5B, 132-5G, 130-2G, 232-IF) or a biotinylated anti-G glycoprotein monoclonal antibody cocktail (130-2G, 131-2G) or anti-Fkn monoclonal antibody (51637.11; R&D Diagnostics). Concentrations of 1 μg of anti-G glycoprotein monoclonal antibody (131-2G)^34, rabbit anti-CX3CR1 sera^33, and anti-CX3CR1 monoclonal antibody containing 10 μg/ml heparin were used in all experiments. […] Staining was detected with absorbed FITC-goat anti-mouse (H & L chain) monoclonal antibody (PharMingen, San Diego, Calif.) or streptavidin-PE (PharMingen) using flow cytometry (FACScan, Becton-Dickinson, Mountain View, Calif.). A 76 amino acid ^125I-Fkn polypeptide comprising the […] (NEN, Boston, Mass.) was used in radioligand studies^33. As a control, the void volume following purified G glycoprotein passaged over an anti-G glycoprotein antibody (130-2G) affinity column was examined by flow cytometry for binding to either 293 or 293-CX3CR1 cells.
as §1, §2, §3

Read-outs that look alike come from different tables or passages of the source.

T1 sequence (P49238 whole entry): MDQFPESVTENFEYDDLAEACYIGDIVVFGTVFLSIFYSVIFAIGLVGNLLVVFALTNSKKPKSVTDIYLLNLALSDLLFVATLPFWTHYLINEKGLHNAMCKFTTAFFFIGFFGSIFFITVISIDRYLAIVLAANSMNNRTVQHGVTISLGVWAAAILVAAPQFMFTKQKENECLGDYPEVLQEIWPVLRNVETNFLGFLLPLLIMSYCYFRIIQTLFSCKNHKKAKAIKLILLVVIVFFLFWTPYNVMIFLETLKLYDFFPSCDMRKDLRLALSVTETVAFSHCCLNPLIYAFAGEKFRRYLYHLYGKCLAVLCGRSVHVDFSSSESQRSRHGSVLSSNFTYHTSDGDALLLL

For the molecule “Fkn: CX3C chemokine fractalkine (R&D), ligand of CX3CR1 [reference compound]”, the “plaque inhibition (%)” value in the test with RSV (100 pM) was determined as 0%; with RSV (1 nM), 31%; in the test on RSV (10 nM), 80%; with RSV (heparin 5 μg/ml + Fkn 10 nM) it was 97%. Also, the “Range of Inhibition (%) of G glycoprotein binding” value in test [1] (heparin 5 μg/ml + Fractalkine 10 nM) is 85-98%; in test [1] (inhibitor 100 pM, no heparin), 2-5%; in test [1] (inhibitor 10 nM, no heparin), 8-15%; in test [1] (inhibitor 1 μM, no heparin), 20-34%.

With NKKPGKKTTTKP [RT34], in the test with RSV (1 μM), the “plaque inhibition (%)” value is given as 6%. Moreover, the “Range of Inhibition (%) of G glycoprotein binding” value in test [1] (inhibitor 1 μM, no heparin) is recorded as 4-18%. Further, in test [2] (inhibitor 1 μM), the “Range of Inhibition (%) of Fkn binding” value is recorded as 6-14%.

In the case of TCWACKRIPNK (TCWAIACKRIPNK) [Δ − 1], the “plaque inhibition (%)” value with RSV (1 μM) is on record as 0%. For the same molecule, the “percent staining of G glycoprotein on CX3CR1-293 cells in the presence of peptide” value in test [1] was determined as 73%. The “Range of Inhibition (%) of G glycoprotein binding” value in test [1] (inhibitor 1 μM, no heparin) is on record as 8-12%. Also, the “Range of Inhibition (%) of Fkn binding” value in test [2] (inhibitor 1 μM) is 0-4%.

As to TCWAIACKRIPNK [Δ + 1], the “plaque inhibition (%)” value with RSV (1 μM) was determined as 30%. Also, the “percent staining of G glycoprotein on CX3CR1-293 cells in the presence of peptide” value in test [1] was 65%. In test [1] (inhibitor 1 μM, no heparin), the “Range of Inhibition (%) of G glycoprotein binding” value is on record as 16-22%. Moreover, in test [2] (inhibitor 1 μM), the “Range of Inhibition (%) of Fkn binding” value was 0-8%.

For TCWAICKRIPNK [RT33], the “plaque inhibition (%)” value is recorded as 71% in the test with RSV (1 μM) and 92% in the test with RSV (heparin 5 μg/ml + peptide 1 μM). For the same molecule, the “plaque reduction by peptide alone” value in the test with RSV (concentration not stated) was 16%. Besides, the “Range of Inhibition (%) of G glycoprotein binding” value in test [1] (heparin 5 μg/ml + peptide 1 μM) is 85-94%; in test [1] (inhibitor 1 μM, no heparin), 35-42%. In addition, in test [2] (inhibitor 1 μM), the “Range of Inhibition (%) of Fkn binding” value is reported as 18-27%.

As for VPCSICSNNPTC [RT32], in the test on RSV (1 μM), the “plaque inhibition (%)” value is given as 2%. Moreover, in test [1] (inhibitor 1 μM, no heparin), the “Range of Inhibition (%) of G glycoprotein binding” value is given as 8-14%. The “Range of Inhibition (%) of Fkn binding” value in test [2] (inhibitor 1 μM) is recorded as 6-12%.

B1: G glycoprotein: purified G glycoprotein isolated from RSV/A2-infected Vero cells (protein)
chain: MSKNKDQRTAKTLERTWDTLNHLLFISSCLYKLNLKSVAQITLSILAMIISTSLIIAAIIFIASANHKVTPTTAIIQDATSQIKNTTPTYLTQNPQLGISPSNPSEITSQITTILASTTPGVKSTLQSTTVKTKNTTTTQTQPSKPTTKQRQNKPPSKPNNDFHFEVFNFVPCSICSNNPTCWAICKRIPNKKPGKKTTTKPTKKPTLKTTKKDPKPQTTKSKEVPTTKPTEEPTINTTKTNIITTLLTSNTTGNPELTSQMETFHSTSSEGNPSPSQVSTTSEYPSQPSSPPNTPRQ
Turning to B1, the “plaque inhibition (%)” value with RSV (1 nM) is on record as 0%; with RSV (10 nM), 49%; in the test on RSV (100 nM), 61%; in the test on RSV (heparin 5 μg/ml + G glycoprotein 100 nM) it was 98%. Also, the “Range of Inhibition (%) of Fkn binding” value in test [2] (inhibitor 100 pM) was 5-8%; in test [2] (inhibitor 10 nM), 32-38%; in test [2] (inhibitor 1 μM), 50-58%.
